Experimental data published in paper PMC8119466, “A screen of FDA-approved drugs identifies inhibitors of protein tyrosine phosphatase 4A3 (PTP4A3 or PRL-3)” (Scientific Reports, 2021).
Counter-ions that a name gives are not always drawn. Like-named read-outs stand apart in the source and are kept apart here.

Tests used:
Format in all cases: biochemical
[1] = target: T1, recombinant PRL-3 (Homo sapiens, UniProt O75365); assay: In vitro phosphatase assay (DiFMUP hydrolysis), PRL-3; further: test concentration or dose not given here
T1 construct: 6xHis (N, cleaved yes); made in house; host or cells: E. coli One Shot BL21 Star
T1 sequence (O75365 whole entry): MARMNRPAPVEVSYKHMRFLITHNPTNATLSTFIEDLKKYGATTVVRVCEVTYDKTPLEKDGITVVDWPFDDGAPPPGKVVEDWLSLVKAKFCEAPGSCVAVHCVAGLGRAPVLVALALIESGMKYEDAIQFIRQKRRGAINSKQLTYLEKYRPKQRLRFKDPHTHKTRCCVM

[2] = target: T2, recombinant PRL-2 (Homo sapiens, UniProt Q12974); assay: In vitro phosphatase assay (DiFMUP hydrolysis), PRL-2;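 further: PRL-2 activity read as DiFMUP hydrolysis after 20 min at room temperature with drug, enzyme first pre-reduced at 4 °C for 20 min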
T2 construct: 6xHis (N, cleaved yes); made in house; host or cells: E. coli One Shot BL21 Star
T2 sequence (Q12974 1-167): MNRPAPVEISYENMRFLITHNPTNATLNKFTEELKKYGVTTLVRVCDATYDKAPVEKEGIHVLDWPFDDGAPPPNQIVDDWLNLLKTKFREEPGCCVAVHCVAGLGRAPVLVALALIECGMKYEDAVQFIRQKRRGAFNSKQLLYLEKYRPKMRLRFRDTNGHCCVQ

[3] = target: T3, recombinant PRL-1 (Homo sapiens, UniProt Q93096); assay: In vitro phosphatase assay (DiFMUP hydrolysis), PRL-1; further: test concentration or dose not given here
T3 construct: 6xHis (N, cleaved yes); made in house; host or cells: E. coli One Shot BL21 Star
T3 sequence (Q93096 1-173): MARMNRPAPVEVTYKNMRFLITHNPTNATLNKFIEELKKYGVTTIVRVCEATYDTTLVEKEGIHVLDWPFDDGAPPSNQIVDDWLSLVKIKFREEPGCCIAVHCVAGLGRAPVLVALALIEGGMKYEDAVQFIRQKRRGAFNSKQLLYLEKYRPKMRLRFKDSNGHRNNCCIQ

[4] = FDA-approved drug screen, compared to DMSO

COc1ccc2[nH]cc(CCNC(C)=O)c2c1 [Melatonin]
% Phosphatase Activity (compared to DMSO) PRL-3 [1, 4]: 81% | % Phosphatase Activity (compared to DMSO) PRL-2 [2, 4]: 108% | % Phosphatase Activity (compared to DMSO) PRL-1 [3, 4]: 125%

Cc1cnc(NC(=O)C2=C(O)c3ccccc3S(=O)(=O)N2C)s1 [Meloxicam]
% Phosphatase Activity (compared to DMSO) PRL-3 [1, 4]: 83% | % Phosphatase Activity (compared to DMSO) PRL-2 [2, 4]: 75% | % Phosphatase Activity (compared to DMSO) PRL-1 [3, 4]: 74%

CC12CC3CC(C)(C1)CC(N)(C3)C2 [Memantine HCl]
% Phosphatase Activity (compared to DMSO) PRL-3 [1, 4]: 94% | % Phosphatase Activity (compared to DMSO) PRL-2 [2, 4]: 107% | % Phosphatase Activity (compared to DMSO) PRL-1 [3, 4]: 83%

CC1=CC(=O)c2ccccc2C1=O [Menadione]
% Phosphatase Activity (compared to DMSO) PRL-3 [1, 4]: 62% | % Phosphatase Activity (compared to DMSO) PRL-2 [2, 4]: 75% | % Phosphatase Activity (compared to DMSO) PRL-1 [3, 4]: 62%

C[N+]1(C)CCCC(OC(=O)C(O)(c2ccccc2)c2ccccc2)C1 (stereo not drawn) [Mepenzolate Bromide]
% Phosphatase Activity (compared to DMSO) PRL-3 [1, 4]: 80% | % Phosphatase Activity (compared to DMSO) PRL-2 [2, 4]: 93% | % Phosphatase Activity (compared to DMSO) PRL-1 [3, 4]: 93%

[O-][n+]1cccc(CO)c1 [Mepiroxol]
% Phosphatase Activity (compared to DMSO) PRL-3 [1, 4]: 87% | % Phosphatase Activity (compared to DMSO) PRL-2 [2, 4]: 112% | % Phosphatase Activity (compared to DMSO) PRL-1 [3, 4]: 100%

Cc1cccc(C)c1NC(=O)C1CCCCN1C (stereo not drawn) [Mepivacaine HCl]
% Phosphatase Activity (compared to DMSO) PRL-3 [1, 4]: 87% | % Phosphatase Activity (compared to DMSO) PRL-2 [2, 4]: 104% | % Phosphatase Activity (compared to DMSO) PRL-1 [3, 4]: 86%

C[C@H]1C[C@H]2[C@@H]3CCC4=CC(=O)C=C[C@]4(C)[C@H]3C(=O)C[C@]2(C)[C@@]1(O)C(=O)CO [Meprednisone]
% Phosphatase Activity (compared to DMSO) PRL-3 [1, 4]: 78% | % Phosphatase Activity (compared to DMSO) PRL-2 [2, 4]: 97% | % Phosphatase Activity (compared to DMSO) PRL-1 [3, 4]: 99%

CCC1(c2cccc(O)c2)CCCCN(C)C1 (stereo not drawn) [Meptazinol HCl]
% Phosphatase Activity (compared to DMSO) PRL-3 [1, 4]: 84% | % Phosphatase Activity (compared to DMSO) PRL-2 [2, 4]: 124% | % Phosphatase Activity (compared to DMSO) PRL-1 [3, 4]: 106%

COc1ccc(O)cc1 [Mequinol]
% Phosphatase Activity (compared to DMSO) PRL-3 [1, 4]: 85% | % Phosphatase Activity (compared to DMSO) PRL-2 [2, 4]: 120% | % Phosphatase Activity (compared to DMSO) PRL-1 [3, 4]: 104%

S=c1nc[nH]c2nc[nH]c12 [Mercaptopurine (6-MP)]
% Phosphatase Activity (compared to DMSO) PRL-3 [1, 4]: 74% | % Phosphatase Activity (compared to DMSO) PRL-2 [2, 4]: 76% | % Phosphatase Activity (compared to DMSO) PRL-1 [3, 4]: 93%

C[C@@H](O)[C@H]1C(=O)N2C(C(=O)O)=C(S[C@@H]3CN[C@H](C(=O)N(C)C)C3)[C@H](C)[C@H]12 [Meropenem]
% Phosphatase Activity (compared to DMSO) PRL-3 [1, 4]: 57% | % Phosphatase Activity (compared to DMSO) PRL-2 [2, 4]: 109% | % Phosphatase Activity (compared to DMSO) PRL-1 [3, 4]: 104%

Nc1ccc(O)c(C(=O)O)c1 [Mesalamine]
% Phosphatase Activity (compared to DMSO) PRL-3 [1, 4]: 82% | % Phosphatase Activity (compared to DMSO) PRL-2 [2, 4]: 131% | % Phosphatase Activity (compared to DMSO) PRL-1 [3, 4]: 112%

O=S(=O)(O)CCS [Mesna]
% Phosphatase Activity (compared to DMSO) PRL-3 [1, 4]: 102% | % Phosphatase Activity (compared to DMSO) PRL-2 [2, 4]: 93% | % Phosphatase Activity (compared to DMSO) PRL-1 [3, 4]: 95%

CN1CCCCC1CCN1c2ccccc2Sc2ccc([S+](C)[O-])cc21 (stereo not drawn) [Mesoridazine Besylate]
% Phosphatase Activity (compared to DMSO) PRL-3 [1]: 99% | % Phosphatase Activity (compared to DMSO) PRL-2 [2]: 95% | % Phosphatase Activity (compared to DMSO) PRL-1 [3]: 98%

CC(C)NCC(O)c1cc(O)cc(O)c1 (stereo not drawn) [Metaproterenol Sulfate]
% Phosphatase Activity (compared to DMSO) PRL-3 [1, 4]: 95% | % Phosphatase Activity (compared to DMSO) PRL-2 [2, 4]: 112% | % Phosphatase Activity (compared to DMSO) PRL-1 [3, 4]: 98%

C[C@H](N)[C@H](O)c1cccc(O)c1 [Metaraminol Bitartrate]
% Phosphatase Activity (compared to DMSO) PRL-3 [1, 4]: 94% | % Phosphatase Activity (compared to DMSO) PRL-2 [2, 4]: 106% | % Phosphatase Activity (compared to DMSO) PRL-1 [3, 4]: 112%

CN(C)C(=N)N=C(N)N [Metformin HCl]
% Phosphatase Activity (compared to DMSO) PRL-3 [1, 4]: 87% | % Phosphatase Activity (compared to DMSO) PRL-2 [2, 4]: 78% | % Phosphatase Activity (compared to DMSO) PRL-1 [3, 4]: 102%
